The subject of one assay is SbFNR2. In words: SbFNR2 activity assay (dihydroflavonols, flavanones, anthocyanidins). The class given is biochemical, Sorghum bicolor. To be noted: anthocyanidin reduction.
In assay [1] the target is T1, PvDFRa (Panicum virgatum, UniProt A0A8T0SQV2). In words: PvDFRa activity against anthocyanidins (ANR activity). The class given is biochemical. Particulars: anthocyanidin reduction. As to the method: (§1) To measure any overlapping specificity among FNR, DFR, and ANR for anthocyanidins, their activity against cyanidin, pelargonidin, and delphinidin were assayed.
(§2) LC-MS was used to analyze the various flavonoids using a Waters Xevo TQ-MS mass spectrometer interfaced with a Waters Acquity UPLC. […] The chromatographic conditions used were based on. The mobile phase used was a binary gradient of water with 0.1% (v/v) formic acid (Solvent A) and methanol with 0.1% formic acid (Solvent B). The solvent flow rate was 0.2 mL min^-1. and the initial solvent composition was 20% B/80% A and was constant for the first minute following sample injection. Gradient elution was accomplished by increasing the ratio of solvent B to solvent A from 20:80 to 65:35 over 10 min. using a linear gradient, and then increased to 100:0 over the next 4 min. The composition was maintained at 100% B for 5 min., returned to 80%A/20%B over the next 3 min., and held at that ratio for the next 3 min. […]
(§3) Appropriate daughter ions to be used for multiple reaction monitoring (MRM) of (-)-epicatechin were identified by infusing standard and recording spectra. The optimum cone voltage and collision energy of epicatechin were also determined in these infusion experiments. […]

The target of assay [2] is T2, SbFNR1 (Sorghum bicolor, UniProt C5YGL7). The assay can be described thus: SbFNR1 activity assay (dihydroflavonols, flavanones, anthocyanidins). The class given is biochemical. Particulars: anthocyanidin reduction.
In a further assay the target is SbDFR3 (Sorghum bicolor, UniProt C5XVF8). The assay can be described thus: SbDFR3 activity against anthocyanidins (ANR activity). The class given is biochemical. To be noted: anthocyanidin reduction. As to the method:
as §1, §2, §3

In assay [3] the target is T2, SbFNR1. The assay can be described thus: Isothermal titration calorimetry, SbFNR1. It is filed as binding. To be noted: ITC. (In ITC the heat of successive injections is recorded.)
The target in assay [4] is T1, PvDFRa. In words: Isothermal titration calorimetry, PvDFRa. It is filed as binding. Particulars: ITC. As to the method: In order to obtain thermodynamic parameters for the association, isothermal titration calorimetry (ITC) for PvDFRa was performed (Figure S8, Table 2).
Isothermal Titration Calorimetry: Purified PvDFR was dialyzed to a buffer containing 50 mM Bis-Tris, 50 mM Tricine (pH 6.5), 200 mM NaCl and 2.5% (v/v) glycerol. Substrates were dissolved in the same buffer used for enzyme dialysis. Analysis was conducted utilizing a Microcal ITC 200 (Malvern). […] A total of 22 injections were made, each with a volume of 2 uL. Data analysis was conducted utilizing Origin Software 7 and modeled to the appropriate nonlinear regression.

The results in this text go back to publication PMC10531346, “Structural Similarities and Overlapping Activities among Dihydroflavonol 4-Reductase, Flavanone 4-Reductase, and Anthocyanidin Reductase Offer Metabolic Flexibility in the Flavonoid Pathway” (International Journal of Molecular Sciences, 2023).

On to `Oc1cc(O)c2cc(O)c(-c3ccc(O)c(O)c3)[o+]c2c1` [cyanidin], for which the “efficiency relative to the activity of SbANR” value with SbFNR2 was determined as 7.4%; at SbFNR1 [2], 11.9%. Also, the results for the “activity as % of the activity of SbANR” value on PvDFRa [1] and at SbDFR3 were 0.5% and 0.9%, respectively.

With `Oc1ccc(-c2[o+]c3cc(O)cc(O)c3cc2O)cc1` [pelargonidin], the “efficiency relative to the activity of SbANR” value in the assay with SbFNR2 came out at 42.7%; on SbFNR1 [2] it was 2.1%. Moreover, the “activity as % of the activity of SbANR” value on PvDFRa [1] is 13.8%; on SbDFR3, 2.3%.

NADP^+: on SbFNR1 [3], the “∆H” value is -1.12 ± 0.72 kcal/mol and the “∆S” value is given as −15.4 Cal mol^−1 K^−1. For the same compound, the “NADP^+-binding affinity relative to affinity for DHQ” value on PvDFRa [4] is “roughly 100 times”. In addition, at PvDFRa [4] (298 K), the “∆H” value was -9.41 ± 0.15 kcal/mol and the “∆S” value was −0.226 Cal mol^−1 K^−1.
